Inhibition data for 32 compounds are collected here from US9481676B2, “Azepino[4,5-B]indoles and methods of use” (Medivation Technologies, Inc., priority 2008, dated 2016).

The target in this assay is T1, human recombinant adrenergic α1D receptor (Homo sapiens, UniProt P25100).
T1 construct: expressed in transfected cells; host or cells: HEK-293 cells
T1 sequence (P25100 1-572): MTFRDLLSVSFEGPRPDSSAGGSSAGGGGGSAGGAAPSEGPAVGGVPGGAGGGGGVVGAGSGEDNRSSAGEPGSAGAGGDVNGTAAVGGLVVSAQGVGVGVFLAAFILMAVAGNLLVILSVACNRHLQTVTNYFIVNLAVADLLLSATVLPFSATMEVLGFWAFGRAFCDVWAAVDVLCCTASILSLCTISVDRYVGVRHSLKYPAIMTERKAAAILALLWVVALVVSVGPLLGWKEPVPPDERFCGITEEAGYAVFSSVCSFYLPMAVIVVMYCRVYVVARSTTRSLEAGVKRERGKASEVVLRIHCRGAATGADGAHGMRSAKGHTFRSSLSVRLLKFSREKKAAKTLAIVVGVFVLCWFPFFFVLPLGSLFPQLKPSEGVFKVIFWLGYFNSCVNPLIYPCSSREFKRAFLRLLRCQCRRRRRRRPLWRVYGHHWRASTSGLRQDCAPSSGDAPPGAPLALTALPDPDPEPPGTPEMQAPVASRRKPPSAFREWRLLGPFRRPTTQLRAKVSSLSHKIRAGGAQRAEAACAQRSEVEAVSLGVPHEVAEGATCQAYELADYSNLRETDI
As to the kind of experiment: Adrenergic alpha1D radioligand binding ([3H]Prozosin). Conditions: compound at 1 μM; read-out: Adrenergic (1 μM) α1D, percent inhibition of specific binding. The procedure: To evaluate in radioligand binding assays the activity of compounds of the invention, human recombinant adrenergic α1D receptor expressed in human embryonic kidney (HEK-293) cells (Kenny, B. A. et al. Br. J. Pharmacol. 115(6):981, 1995) in a 50 mM Tris-HCl buffer, pH 7.4, was used. Compounds of invention were incubated with 0.6 nM [^3H]Prozosin for 60 min. at 25° C. Non-specific binding was estimated in the presence of 10 μM phentolamine. Receptor proteins were filtered and washed, the filters were then counted to determine [^3H]Prozosin specifically bound. Compounds were screened at 1 μM or lower, using 1% DMSO as vehicle. Biochemical assay results are presented as the percent inhibition of specific binding in Table 5.
On to `CN1CCc2c(n(CCc3cncc(Cl)c3)c3ccc(Cl)cc23)CC1` [Compound No. 10, 9-chloro-6-(2-(5-chloropyridin-3-yl)ethyl)-1,2,3,4,5,6-hexahydro-3-methylazepino[4,5-b]indole], for which the inhibition at 1 µM is 89%. Turning to `CN1CCc2c(n(CCc3ccccc3Cl)c3ccc(Cl)cc23)CC1` [Compound No. 29, 6-(2-chlorophenethyl)-9-chloro-1,2,3,4,5,6-hexahydro-3-methylazepino[4,5-b]indole], the inhibition at 1 µM was 71%.

`COc1ccc(C(O)Cn2c3c(c4cc(Cl)ccc42)CCN(C)CC3)cc1` (centres unmarked) [Compound No. 47, 2-(9-chloro-2,3,4,5-tetrahydro-3-methylazepino[4,5-b]indol-6(1H)-yl)-1-(4-methoxyphenyl)ethanol]: the inhibition at 1 µM is 97%. The result for `COc1ccc(/C=C/n2c3c(c4cc(C)ccc42)CCN(C)CC3)c(F)c1` [Compound No. 230, (E)-6-(2-fluoro-4-methoxystyryl)-3,9-dimethyl-1,2,3,4,5,6-hexahydroazepino[4,5-b]indole] reads 97%; that for `CN1CCc2c(n(CCc3ccccc3)c3ccc(Cl)cc23)CC1` [Compound No. 56, 9-chloro-1,2,3,4,5,6-hexahydro-3-methyl-6-phenethylazepino[4,5-b]indole], 83%; that for `Cc1ccc2c(c1)c1c(n2CC(O)c2ccc(F)cc2)CCN(C)CC1` (centres unmarked) [Compound No. 52, 1-(4-fluorophenyl)-2-(2,3,4,5-tetrahydro-3,9-dimethylazepino[4,5-b]indol-6(1H)-yl)ethanol], 91%. `COc1ccc(C(O)Cn2c3c(c4cc(Cl)ccc42)CCN(C)CC3)c(F)c1` (centres unmarked) [Compound No. 49, 2-(9-chloro-2,3,4,5-tetrahydro-3-methylazepino[4,5-b]indol-6(1H)-yl)-1-(2-fluoro-4-methoxyphenyl) ethanol]: the inhibition at 1 µM turned out to be 71%. The result for `Cc1ccc2c(c1)c1c(n2CC(=O)N2CCOCC2)CCN(C)CC1` [Compound No. 38, 2-(2,3,4,5-tetrahydro-3,9-dimethylazepino[4,5-b]indol-6(1H)-yl)-1-morpholinoethanone] reads 38%; that for `CN1CCc2c(n(CCc3ccc(C(=O)O)nc3)c3ccc(Cl)cc23)CC1` [Compound No. 21, 5-(2-(9-chloro-2,3,4,5-tetrahydro-3-methylazepino[4,5-b]indol-6(1H)-yl)ethyl)pyridine-2-carboxylic acid], 17%; that for `CN1CCc2c(n(CC(=O)OCc3ccccc3)c3ccc(Cl)cc23)CC1` [Compound No. 75, Benzyl-2-(9-chloro-2,3,4,5-tetrahydro-3-methylazepino[4,5-b]indol-6(1H)-yl)acetate], 7%. With `CN1CCc2c(n(CCc3ccccn3)c3ccc(Cl)cc23)CC1` [Compound No. 8, 9-chloro-1,2,3,4,5,6-hexahydro-3-methyl-6-(2-(pyridin-2-yl)ethyl)azepino[4,5-b]indole], the inhibition at 1 µM was determined as 91%. The result for `Cc1ccc2c(c1)c1c(n2CC(O)c2ccccc2)CCN(C)CC1` (centres unmarked) [Compound No. 25, 2-(2,3,4,5-tetrahydro-3,9-dimethylazepino[4,5-b]indol-6(1H)-yl)-1-phenylethanol] reads 96%; that for `CN1CCc2c(n(CCc3ccc(Cl)cc3)c3ccc(Cl)cc23)CC1` [Compound No. 30, 6-(4-chlorophenethyl)-9-chloro-1,2,3,4,5,6-hexahydro-3-methylazepino[4,5-b]indole], 89%.

On to `CN1CCc2c(n(CC(C)(O)c3ccc(Cl)cc3)c3ccc(Cl)cc23)CC1` (centres unmarked) [Compound No. 12, 1-(9-chloro-2,3,4,5-tetrahydro-3-methylazepino[4,5-b]indol-6(1H)-yl)-2-(4-chlorophenyl)propan-2-ol], for which the inhibition at 1 µM worked out at 68%. The result for `C=C(Cn1c2c(c3cc(Cl)ccc31)CCN(C)CC2)c1ccc(Cl)cc1` [Compound No. 35, 9-chloro-6-(2-(4-chlorophenyl)allyl)-3-methyl-1,2,3,4,5,6-hexahydroazepino[4,5-b]indole] reads 96%; that for `CN1CCc2c(n(C#Cc3ccc(Cl)cc3)c3ccc(Cl)cc23)CC1` [Compound No. 282, 9-chloro-6-((4-chlorophenyl)ethynyl)-3-methyl-1,2,3,4,5,6-hexahydroazepino[4,5-b]indole], 67%. For `Cc1ccc2c(c1)c1c(n2CCc2ccc(C(=O)O)nc2)CCN(C)CC1` [Compound No. 11, 5-(2-(2,3,4,5-tetrahydro-3,9-dimethylazepino[4,5-b]indol-6(1H)-yl)ethyl)pyridine-2-carboxylic acid], the inhibition at 1 µM turned out to be 7%. Turning to `CN1CCc2c(n(C#Cc3ccc(F)cc3)c3ccc(Cl)cc23)CC1` [Compound No. 281, 9-chloro-6-((4-fluorophenyl)ethynyl)-3-methyl-1,2,3,4,5,6-hexahydroazepino[4,5-b]indole], the inhibition at 1 µM amounted to 75%. The result for `Cc1ccc2c(c1)c1c(n2CC(=O)N2CCCC2)CCN(C)CC1` [Compound No. 45, 2-(2,3,4,5-tetrahydro-3,9-dimethylazepino[4,5-b]indol-6(1H)-yl)-1-(pyrrolidin-1-yl)ethanone] reads 1%; that for `Cc1ccc2c(c1)c1c(n2CC(=O)N(C)C2CCCCC2)CCN(C)CC1` [Compound No. 232, N-cyclohexyl-2-(3,9-dimethyl-2,3,4,5-tetrahydroazepino[4,5-b]indol-6(1H)-yl)-N-methylacetamide], 29%. The result for `CN1CCc2c(n(CC(=O)N3CCOCC3)c3ccc(Cl)cc23)CC1` [Compound No. 60, 2-(9-chloro-2,3,4,5-tetrahydro-3-methylazepino[4,5-b]indol-6(1H)-yl)-1-morpholinoethanone] reads -1%; that for `C/C(=C\n1c2c(c3cc(C)ccc31)CCN(C)CC2)c1ccc(Cl)cc1Cl` [Compound No. 238, (E)-6-(2-(2,4-dichlorophenyl)prop-1-enyl)-3,9-dimethyl-1,2,3,4,5,6-hexahydroazepino[4,5-b]indole], 30%.

As to `COc1ccc(C(O)Cn2c3c(c4cc(C)ccc42)CCN(C)CC3)c(F)c1` (centres unmarked) [Compound No. 50, 1-(2-fluoro-4-methoxyphenyl)-2-(2,3,4,5-tetrahydro-3,9-dimethylazepino[4,5-b]indol-6(1H)-yl)ethanol], the inhibition at 1 µM worked out at 84%. For the compound `Cc1ccc2c(c1)c1c(n2CC(C)(O)c2ccc(F)cc2)CCN(C)CC1` (centres unmarked) [Compound No. 14, 2-(4-fluorophenyl)-1-(2,3,4,5-tetrahydro-3,9-dimethylazepino[4,5-b]indol-6(1H)-yl)propan-2-ol], the inhibition at 1 µM stood at 75%. The result for `Cc1ccc2c(c1)c1c(n2CCc2ccccc2)CCN(C)CC1` [Compound No. 62, 1,2,3,4,5,6-hexahydro-3,9-dimethyl-6-phenethylazepino[4,5-b]indole] reads 12%; that for `C/C(=C\n1c2c(c3cc(Cl)ccc31)CCN(C)CC2)c1ccc(Cl)cc1Cl` [Compound No. 239, (E)-9-chloro-6-(2-(2,4-dichlorophenyl)prop-1-enyl)-3-methyl-1,2,3,4,5,6-hexahydroazepino[4,5-b]indole], 28%; that for `Cc1ccc2c(c1)c1c(n2CC(=O)Nc2ccc(F)cc2)CCN(C)CC1` [Compound No. 44, N-(4-fluorophenyl)-2-(2,3,4,5-tetrahydro-3,9-dimethylazepino[4,5-b]indol-6(1H)-yl)acetamide], 10%.

In the case of `Cc1ccc2c(c1)c1c(n2CC(=O)NC2CCCCC2)CCN(C)CC1` [Compound No. 22, N-cyclohexyl-2-(2,3,4,5-tetrahydro-3,9-dimethylazepino[4,5-b]indol-6(1H)-yl)acetamide], the inhibition at 1 µM worked out at 1%.

Consider `Cc1ccc2c(c1)c1c(n2CCc2cncc(Cl)c2)CCN(C)CC1` [Compound No. 4, 6-(2-(5-chloropyridin-3-yl)ethyl)-1,2,3,4,5,6-hexahydro-3,9-dimethylazepino[4,5-b]indole], for which the inhibition at 1 µM turned out to be 76%. The result for `CN1CCc2c(n(CC(=O)N3CCNCC3)c3ccc(Cl)cc23)CC1` [Compound No. 72, 2-(9-chloro-2,3,4,5-tetrahydro-3-methylazepino[4,5-b]indol-6(1H)-yl)-1-(piperazin-1-yl)ethanone] reads 17%. For the compound `CN1CCc2c(n(CC(O)c3ccccc3F)c3ccc(Cl)cc23)CC1` (centres unmarked) [Compound No. 40, 2-(9-chloro-2,3,4,5-tetrahydro-3-methylazepino[4,5-b]indol-6(1H)-yl)-1-(2-fluorophenyl)ethanol], the inhibition at 1 µM came out at 64%.

As to `CN1CCc2c(n(CC(=O)N(C)C3CCCCC3)c3ccc(Cl)cc23)CC1` [Compound No. 74, 2-(9-chloro-2,3,4,5-tetrahydro-3-methylazepino[4,5-b]indol-6(1H)-yl)-N-cyclohexyl-N-methylacetamide], the inhibition at 1 µM is 17%.
